Values quoted from earlier work as cited in US5945412A, “Methods and compositions for preventing and treating bone loss” (Merck & Co., Inc., priority 1997, dated 1999).

Test system: human type 2 enzyme (5α-reductase)
Conditions: background statement

## CC(C)(C)NC(=O)[C@H]1CC[C@H]2[C@@H]3CC[C@H]4NC(=O)C=C[C@]4(C)[C@H]3CC[C@]12C [Finasteride, 17β-(N-tert-butylcarbamoyl)-3-oxo-4-aza-5α-androst-1-en-3-one]
  inhibition of the human type 2 enzyme (in words): potent inhibitor
